Experimental data published in PubChem BioAssay (NCI).
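1) Cells in 96-well plates. 2) Compound, 48 h, 5 concentrations. 3) Linear interpolation between surrounding doses. 4) Unreached endpoint = highest concentration. Abbreviation: GI50, concentration required for 50% inhibition of growth. Definition used: TGI = concentration required for complete inhibition of growth.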

Key:
Test in all cases: NCI-60 cell line screen, 48 h
MOLT-4 leukemia = system: MOLT-4 leukemia
NCI-H226 lung = system: NCI-H226 lung
NCI-H23 lung = system: NCI-H23 lung
NCI-H522 lung = system: NCI-H522 lung
NCI/ADR-RES ovarian = system: NCI/ADR-RES ovarian
OVCAR-4 ovarian = system: OVCAR-4 ovarian
OVCAR-5 ovarian = system: OVCAR-5 ovarian
OVCAR-8 ovarian = system: OVCAR-8 ovarian
PC-3 prostate = system: PC-3 prostate
RPMI-8226 leukemia = system: RPMI-8226 leukemia
SF-268 CNS = system: SF-268 CNS
SF-295 CNS = system: SF-295 CNS
SF-539 CNS = system: SF-539 CNS
SK-MEL-2 melanoma = system: SK-MEL-2 melanoma
SK-MEL-28 melanoma = system: SK-MEL-28 melanoma
SK-MEL-5 melanoma = system: SK-MEL-5 melanoma
SK-OV-3 ovarian = system: SK-OV-3 ovarian
SN12C renal = system: SN12C renal
SNB-19 CNS = system: SNB-19 CNS
SNB-75 CNS = system: SNB-75 CNS
SR leukemia = system: SR leukemia
T-47D breast = system: T-47D breast
TK-10 renal = system: TK-10 renal
U251 CNS = system: U251 CNS
UACC-62 melanoma = system: UACC-62 melanoma
UO-31 renal = system: UO-31 renal

SMILES: Cc1ccc(S(=O)(=O)Oc2ccc3c4c(c(=O)oc3c2)CCCCC4)cc1
- TGI (MOLT-4 leukemia): > 100 µM
- GI50 (NCI-H226 lung): 7.5 µM
- TGI (NCI-H226 lung): > 100 µM
- GI50 (NCI-H23 lung): 8 µM
- TGI (NCI-H23 lung): > 100 µM
- GI50 (NCI-H522 lung): > 100 µM
- TGI (NCI-H522 lung): > 100 µM
- GI50 (NCI/ADR-RES ovarian): 6.76 µM
- TGI (NCI/ADR-RES ovarian): > 100 µM
- GI50 (OVCAR-4 ovarian): 7.11 µM
- TGI (OVCAR-4 ovarian): > 100 µM
- GI50 (OVCAR-5 ovarian): > 100 µM
- TGI (OVCAR-5 ovarian): > 100 µM
- GI50 (OVCAR-8 ovarian): > 100 µM
- TGI (OVCAR-8 ovarian): > 100 µM
- GI50 (PC-3 prostate): 4.26 µM
- TGI (PC-3 prostate): > 100 µM
- GI50 (RPMI-8226 leukemia): 4.55 µM
- TGI (RPMI-8226 leukemia): > 100 µM
- GI50 (SF-268 CNS): > 100 µM
- TGI (SF-268 CNS): > 100 µM
- GI50 (SF-295 CNS): > 100 µM
- TGI (SF-295 CNS): > 100 µM
- GI50 (SF-539 CNS): 6.77 µM
- TGI (SF-539 CNS): > 100 µM
- GI50 (SK-MEL-2 melanoma): > 100 µM
- TGI (SK-MEL-2 melanoma): > 100 µM
- GI50 (SK-MEL-28 melanoma): > 100 µM
- TGI (SK-MEL-28 melanoma): > 100 µM
- GI50 (SK-MEL-5 melanoma): 2.75 µM
- TGI (SK-MEL-5 melanoma): > 100 µM
- GI50 (SK-OV-3 ovarian): > 100 µM
- TGI (SK-OV-3 ovarian): > 100 µM
- GI50 (SN12C renal): > 100 µM
- TGI (SN12C renal): > 100 µM
- GI50 (SNB-19 CNS): > 100 µM
- TGI (SNB-19 CNS): > 100 µM
- GI50 (SNB-75 CNS): 71.4 µM
- TGI (SNB-75 CNS): > 100 µM
- GI50 (SR leukemia): 3.3 µM
- TGI (SR leukemia): > 100 µM
- GI50 (T-47D breast): 4.37 µM
- TGI (T-47D breast): > 100 µM
- GI50 (TK-10 renal): > 100 µM
- TGI (TK-10 renal): > 100 µM
- GI50 (U251 CNS): > 100 µM
- TGI (U251 CNS): > 100 µM
- GI50 (UACC-62 melanoma): 5.72 µM
- TGI (UACC-62 melanoma): > 100 µM
- GI50 (UO-31 renal): > 100 µM
- TGI (UO-31 renal): > 100 µM
